Data from ChEMBL document CHEMBL2417422, “Modulation of human neutrophils' oxidative burst by flavonoids” (Eur J Med Chem, 2013).
The source made the active and inactive calls. No cut-off for these calls is given here.

Legend:
Neutrophil [1] = experiment: Inhibition of oxidative burst in PMA-stimulated human neutrophils assessed as inhibition of H2O2-induced oxidation of amplex red incubated for 5 mins prior to PMA challenge by fluorescence assay; type: functional, cell-based
Neutrophil [2] = experiment: Inhibition of oxidative burst in PMA-stimulated human neutrophils assessed as inhibition of superoxide anion radical-induced lucigenin oxidation incubated for 5 mins prior to PMA challenge by chemiluminescence assay; type: functional, cell-based
Neutrophil [3] = experiment: Inhibition of oxidative burst in PMA-stimulated human neutrophils assessed as inhibition of ROS-induced luminol oxidation incubated for 5 mins prior to PMA challenge by chemiluminescence assay; type: functional, cell-based
Neutrophil [4] = experiment: Inhibition of oxidative burst in PMA-stimulated human neutrophils assessed as inhibition of HOCl-induced oxidation of APF after 6 mins by fluorescence assay; type: functional, cell-based; settings: 0.1 h
[5] = Cytotoxicity against human neutrophils assessed as cell viability at 100 uM after 1 hr by trypan blue exclusion assay; type: cell-based, Neutrophil; settings: read-out: Activity
Neutrophil [6] = experiment: Inhibition of oxidative burst in PMA-stimulated human neutrophils assessed as inhibition of H2O2-induced oxidation of amplex red at 40 uM incubated for 5 mins prior to PMA challenge by fluorescence assay; type: functional
Neutrophil [7] = experiment: Inhibition of oxidative burst in PMA-stimulated human neutrophils assessed as inhibition of H2O2-induced oxidation of amplex red up to 100 uM incubated for 5 mins prior to PMA challenge by fluorescence assay; type: functional
Neutrophil [8] = experiment: Inhibition of oxidative burst in PMA-stimulated human neutrophils assessed as inhibition of HOCl-induced oxidation of APF up to 100 uM after 6 mins by fluorescence assay; type: functional, cell-based
Neutrophil [9] = experiment: Inhibition of oxidative burst in PMA-stimulated human neutrophils assessed as inhibition of ROS-induced luminol oxidation up to 100 uM incubated for 5 mins prior to PMA challenge by chemiluminescence assay; type: functional
[10] = biological target: T1, Myeloperoxidase (Homo sapiens) (UniProt P05164); experiment: Inhibition of MPO (unknown origin); settings: concentration not given here
T1 sequence (whole entry): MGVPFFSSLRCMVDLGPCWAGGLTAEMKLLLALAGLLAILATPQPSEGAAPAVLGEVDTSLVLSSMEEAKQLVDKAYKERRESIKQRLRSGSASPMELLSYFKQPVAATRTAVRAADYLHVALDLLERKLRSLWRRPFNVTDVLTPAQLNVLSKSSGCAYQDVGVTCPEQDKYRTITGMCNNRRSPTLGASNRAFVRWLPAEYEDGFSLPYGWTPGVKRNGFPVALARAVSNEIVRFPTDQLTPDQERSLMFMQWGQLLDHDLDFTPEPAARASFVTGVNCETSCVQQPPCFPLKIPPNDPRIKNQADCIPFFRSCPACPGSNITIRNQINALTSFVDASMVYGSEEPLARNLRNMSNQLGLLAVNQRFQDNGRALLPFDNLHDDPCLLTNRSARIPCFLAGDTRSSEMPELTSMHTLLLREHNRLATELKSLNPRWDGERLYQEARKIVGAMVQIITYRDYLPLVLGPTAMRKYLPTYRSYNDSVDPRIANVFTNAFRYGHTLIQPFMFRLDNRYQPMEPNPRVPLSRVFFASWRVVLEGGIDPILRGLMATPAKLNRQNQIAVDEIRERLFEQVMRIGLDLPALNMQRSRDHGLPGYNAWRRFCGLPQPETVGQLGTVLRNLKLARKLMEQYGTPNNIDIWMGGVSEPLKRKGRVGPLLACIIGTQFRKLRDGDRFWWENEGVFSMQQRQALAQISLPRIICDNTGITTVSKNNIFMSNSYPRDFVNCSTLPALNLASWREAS

Neutrophil [11] = experiment: Inhibition of oxidative burst in PMA-stimulated human neutrophils assessed as inhibition of superoxide anion radical-induced lucigenin oxidation up to 100 uM incubated for 5 mins prior to PMA challenge by chemiluminescence assay; type: functional
Neutrophil [12] = experiment: Inhibition of oxidative burst in PMA-stimulated human neutrophils assessed as inhibition of ROS-induced luminol oxidation at 25 uM incubated for 5 mins prior to PMA challenge by chemiluminescence assay; type: functional

Row | IC50 (Neutrophil [1]) | IC50 (Neutrophil [2]) | IC50 (Neutrophil [3]) | IC50 (Neutrophil [4]) | inhibition [10] | Compound | viability at 1 h, 100 µM [5] | inhibition at 40 µM (Neutrophil [6]) | inhibition (INH) (Neutrophil [7]) | inhibition (Neutrophil [1]) | inhibition (Neutrophil [8]) | inhibition (INH) (Neutrophil [9]) | inhibition (INH) (Neutrophil [11]) | inhibition at 25 µM (Neutrophil [12])
1 | 79.6 µM | 34.8 µM | 37.4 µM | – | – | O=c1cc(-c2cccc(O)c2)oc2cc(O)ccc12 | > 98% | – | – | – | – | – | – | –
2 | – | 32 µM | 14.5 µM | – | – | O=c1cc(-c2cccc(O)c2)oc2cccc(O)c12 | > 98% | 20% | <40% | – | – | – | – | –
3 | – | 9.59 µM | 53 µM | – | – | O=c1cc(-c2ccccc2)oc2cc(O)cc(O)c12 [CHRYSIN] | > 98% | – | – | inactive | inactive | – | – | –
4 | – | 57 µM | – | 64.9 µM | – | O=c1cc(-c2ccccc2)oc2ccccc12 [FLAVONE] | > 98% | – | – | inactive | – | <40% | – | –
5 | 16.2 µM | 7.7 µM | 24 µM | 12.3 µM | – | O=c1cc(-c2ccc(O)cc2)oc2cc(O)cc(O)c12 [APIGENIN] | > 98% | – | – | – | – | – | – | –
6 | – | 16 µM | 57.6 µM | 3.33 µM | – | COc1ccc(-c2cc(=O)c3c(O)cc(O)cc3o2)cc1OC | > 98% | – | <40% | – | – | – | – | –
7 | – | 33 µM | – | – | – | O=c1cc(-c2ccccc2)oc2cc(O)ccc12 [7-HYDROXYFLAVONE] | > 98% | – | <40% | – | – | <40% | – | –
8 | 3.2 µM | 4.9 µM | 1.6 µM | 0.39 µM | – | O=c1cc(-c2ccc(O)c(O)c2)oc2cccc(O)c12 | > 98% | – | – | – | – | – | – | –
9 | 8.6 µM | 7.1 µM | 2.8 µM | 0.4 µM | – | COc1cc(-c2cc(=O)c3c(O)cc(O)cc3o2)ccc1O [CHRYSOERIOL] | – | – | – | – | – | – | – | –
10 | – | 47 µM | 24 µM | – | – | O=c1cc(-c2cccc(O)c2)oc2ccccc12 | > 98% | 17% | <40% | – | – | – | – | –
11 | 4 µM | 15.5 µM | 18 µM | 1.4 µM | 40% | O=C1CC(c2ccc(O)c(O)c2)Oc2cc(O)cc(O)c21 (racemic) | > 98% | – | – | – | – | – | – | –
12 | – | 26.9 µM | – | – | – | O=c1cc(-c2ccc(O)cc2)oc2cc(O)ccc12 | > 98% | – | <40% | – | – | <40% | – | –
13 | – | 67.8 µM | 18 µM | – | – | O=c1cc(-c2ccc(O)cc2)oc2cccc(O)c12 | > 98% | 20% | <40% | – | – | – | – | –
14 | 3.2 µM | 8.1 µM | 3 µM | 0.9 µM | – | O=c1cc(-c2ccc(O)c(O)c2)oc2ccccc12 | > 98% | – | – | – | – | – | – | –
15 | 41.3 µM | 15.5 µM | 53.5 µM | 15.3 µM | 40% | O=C1c2c(O)cc(O)cc2O[C@H](c2ccc(O)c(O)c2)[C@H]1O [(+)-TAXIFOLIN] | > 98% | – | – | – | – | – | – | –
16 | – | 15.8 µM | 10 µM | 65.4 µM | – | O=c1cc(-c2cccc(O)c2)oc2cc(O)cc(O)c12 | > 98% | – | <40% | – | – | – | – | –
17 | 3.7 µM | 14.7 µM | 13.5 µM | 5.2 µM | – | O=c1cc(-c2ccc(O)c(O)c2)oc2cc(O)ccc12 | > 98% | – | – | – | – | – | – | –
18 | – | – | 40.3 µM | – | – | O=c1cc(-c2ccc(O)cc2)oc2ccccc12 | > 98% | – | – | inactive | – | – | <40% | –
19 | – | 96 µM | – | – | – | O=c1cc(-c2ccccc2)oc2cccc(O)c12 [5-HYDROXYFLAVONE] | > 98% | – | – | inactive | – | <40% | – | 30.1%
20 | 10.3 µM | 15 µM | 3.6 µM | 0.7 µM | – | COc1ccc(-c2cc(=O)c3c(O)cc(O)cc3o2)cc1O [DIOSMETIN] | – | – | – | – | – | – | – | –
21 | – | 7 µM | – | – | – | COc1ccc(-c2cc(=O)c3c(O)cc(O)cc3o2)cc1 [ACACETIN] | > 98% | – | – | inactive | inactive | <40% | – | 26.7%

Row | Compound | IC50 (Neutrophil [1]) | IC50 (Neutrophil [2]) | IC50 (Neutrophil [3]) | IC50 (Neutrophil [4]) | inhibition [10] | viability at 1 h, 100 µM [5] | inhibition at 40 µM (Neutrophil [6]) | inhibition (INH) (Neutrophil [7]) | inhibition (Neutrophil [1]) | inhibition (Neutrophil [8]) | inhibition (INH) (Neutrophil [9]) | inhibition (INH) (Neutrophil [11]) | inhibition at 25 µM (Neutrophil [12])
22 | O=c1c(O)c(-c2ccc(O)c(O)c2)oc2cc(O)cc(O)c12 [QUERCETIN] | 8 µM | 11.3 µM | 26 µM | 0.7 µM | – | > 98% | – | – | – | – | – | – | –
23 | O=c1cc(-c2ccc(O)c(O)c2)oc2cc(O)cc(O)c12 [LUTEOLIN] | 4 µM | 9.5 µM | 9.3 µM | 0.9 µM | – | > 98% | – | – | – | – | – | – | –
24 | O=C1CC(c2ccc(O)cc2)Oc2cc(O)cc(O)c21 (racemic) | – | 31 µM | 51.4 µM | – | – | > 98% | – | <40% | – | – | – | – | –
25 | NNC(=O)c1ccc(N)cc1 | – | – | 43.6 µM | 30.6 µM | – | – | – | – | – | – | – | – | –
